Assay results taken from patent US6699498B1, “Transdermal therapeutic systems having improved stability and their production” (LTS Lohmann Therapie-Systeme AG, priority 1999, dated 2004).

Legend:
[1] = Test reaction of active substance with t-butyl hydroperoxide under reflux; format: physicochemical; settings: chloroform; for Identified degradation product in reaction with t-butyl hydroperoxide: reflux 6 hours
Source text: To determine the sensitivity of the active substance to oxidation reactions with hydroperoxides, an easily implemented test reaction has been developed. For this purpose, the active substance in chloroform or another appropriate solvent is reacted with t-butyl hydroperoxide under reflux. If oxidative degradation products of the active substance are found in this reaction mixture, they can be attributed to the reaction with hydroperoxide. Often, degradation of the active substance is also evident very simply from a discoloration of the test solution. The practical conclusion to be drawn from a positive outcome of the test reaction is that when formulating a transdermal system using this active substance the auxiliaries used should include only those which are substantially free from hydroperoxides.
80 ml of chloroform and 1 g of t-butyl hydroperoxide are added to 0.5 g of the active substance and this system is heated under reflux with stirring for 6 hours. The reaction mixture is subsequently assessed for its color and analyzed using an appropriate chromatographic method for degradation products formed.

[2] = Peroxide number (PON) of raw materials; format: physicochemical; settings: raw material following approximately 6 months' storage at room temperature
Source text: The peroxide content is commonly expressed by means of the so-called peroxide number PON, which indicates the amount of milliequivalents of active oxygen per kg of substance. There are various methods of determining the peroxide number. The most customary is to react a defined amount of substance in a chloroform/glacial acetic acid solution with an excess of iodide ions and then to back-titrate the resultant iodine using sodium thiosulfate. A less common method, which is restricted to aqueous solutions, is to react the substance with titanium(IV) ions and to measure the resultant peroxo complex by photometry. A semiquantitative test for peroxides which is particularly easy to implement is carried out using commercial […].
The table below lists the measured peroxide numbers of some exemplary substances used to produce reservoir and matrix systems, following approximately 6 months' storage at room temperature. The peroxide numbers were measured by the two first-mentioned methods.

SMILES: CCCN1C[C@H](CSC)C[C@@H]2c3cccc4[nH]cc(c34)C[C@H]21 [pergolide]
- Identified degradation product in reaction with t-butyl hydroperoxide [1]: Oxidation of the sulfide sulfur to the sulfoxide

SMILES: Cc1cc2c(OCC(CNC(C)(C)C)OC(=O)c3ccccc3)cccc2[nH]1 (stereo not drawn) [bopindolol]
- Color of reaction mixture with t-butyl hydroperoxide ([1]; reflux): yellowish discoloration which then becomes strongly brown

SMILES: C=C(C)[C@H]1CC=C(C)CC1 [Limonene]
- PON (peroxide number) [2]: 15 milliequivalents of active oxygen per kg of substance

SMILES: CCOCCOCCO [Diethylene glycol monoethyl ether]
- PON (peroxide number) [2]: 120 milliequivalents of active oxygen per kg of substance

SMILES: CCCCCCCC/C=C\CCCCCCCCO [Oleyl alcohol]
- PON (peroxide number) [2]: 50 milliequivalents of active oxygen per kg of substance

SMILES: CCCN(CCc1cccs1)[C@H]1CCc2c(O)cccc2C1 [N-0923 base]
- Identified degradation product in reaction with t-butyl hydroperoxide [1]: 1,2-dihydronaphth-8-ol
